Experiments:
Type in all cases: cell-based
Conditions in all cases: compounds at 50 nM and 500 nM
[1] = target: T1, WEE1 (Homo sapiens, UniProt P30291+Q96SW2); test: Western blot degradation of WEE1 in hPBMCs (24 h)
T1 construct: The supernatant was aspirated as the extracted total cell protein; endogenous in cells; host or cells: human peripheral blood mononuclear cells (hPBMCs)
In short: (§1)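 Degradation in primary human PBMCs after 24 h compound exposure at 50 and 500 nM. Western blot band intensities, normalised to an internal control protein, expressed as % protein remaining relative to DMSO.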

[2] = target: T2, IKZF1 (Homo sapiens, UniProt Q13422+Q96SW2); test: Western blot degradation of IKZF1 in hPBMCs (24 h)
T2 construct: The supernatant was aspirated as the extracted total cell protein; endogenous in cells; host or cells: human peripheral blood mononuclear cells (hPBMCs)
In short: as §1

[3] = target: T3, IKZF2 (Homo sapiens, UniProt Q96SW2+Q9UKS7); test: Western blot degradation of IKZF2 in hPBMCs (24 h)
T3 construct: The supernatant was aspirated as the extracted total cell protein; endogenous in cells; host or cells: human peripheral blood mononuclear cells (hPBMCs)
In short: as §1

[4] = target: T4, IKZF3 (Homo sapiens, UniProt Q96SW2+Q9UKT9); test: Western blot degradation of IKZF3 in hPBMCs (24 h)
T4 construct: The supernatant was aspirated as the extracted total cell protein; endogenous in cells; host or cells: human peripheral blood mononuclear cells (hPBMCs)
In short: as §1

[5] = target: T5, CK1α (Homo sapiens, UniProt P48729+Q96SW2); test: Western blot degradation of CK1α in hPBMCs (24 h)
T5 construct: The supernatant was aspirated as the extracted total cell protein; endogenous in cells; host or cells: human peripheral blood mononuclear cells (hPBMCs)
In short: as §1

[6] = target: T6, GSPT1 (Homo sapiens, UniProt P15170+Q96SW2); test: Western blot degradation of GSPT1 in hPBMCs (24 h)
T6 construct: The supernatant was aspirated as the extracted total cell protein; endogenous in cells; host or cells: human peripheral blood mononuclear cells (hPBMCs)
In short: as §1

T6 sequence (P15170 whole entry): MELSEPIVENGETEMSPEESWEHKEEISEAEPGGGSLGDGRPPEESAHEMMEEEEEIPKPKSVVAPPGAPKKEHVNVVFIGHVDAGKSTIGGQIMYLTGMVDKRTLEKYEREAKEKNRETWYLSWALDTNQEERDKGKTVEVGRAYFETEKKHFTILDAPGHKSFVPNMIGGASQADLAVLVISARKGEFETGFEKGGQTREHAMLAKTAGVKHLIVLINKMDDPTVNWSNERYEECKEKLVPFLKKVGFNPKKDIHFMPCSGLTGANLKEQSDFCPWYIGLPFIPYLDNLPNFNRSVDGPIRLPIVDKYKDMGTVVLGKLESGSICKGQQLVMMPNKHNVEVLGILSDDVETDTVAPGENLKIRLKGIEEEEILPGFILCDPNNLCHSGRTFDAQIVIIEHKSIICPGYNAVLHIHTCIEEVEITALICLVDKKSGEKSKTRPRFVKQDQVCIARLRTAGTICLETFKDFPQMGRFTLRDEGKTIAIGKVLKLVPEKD
T6 sequence (Q96SW2 whole entry): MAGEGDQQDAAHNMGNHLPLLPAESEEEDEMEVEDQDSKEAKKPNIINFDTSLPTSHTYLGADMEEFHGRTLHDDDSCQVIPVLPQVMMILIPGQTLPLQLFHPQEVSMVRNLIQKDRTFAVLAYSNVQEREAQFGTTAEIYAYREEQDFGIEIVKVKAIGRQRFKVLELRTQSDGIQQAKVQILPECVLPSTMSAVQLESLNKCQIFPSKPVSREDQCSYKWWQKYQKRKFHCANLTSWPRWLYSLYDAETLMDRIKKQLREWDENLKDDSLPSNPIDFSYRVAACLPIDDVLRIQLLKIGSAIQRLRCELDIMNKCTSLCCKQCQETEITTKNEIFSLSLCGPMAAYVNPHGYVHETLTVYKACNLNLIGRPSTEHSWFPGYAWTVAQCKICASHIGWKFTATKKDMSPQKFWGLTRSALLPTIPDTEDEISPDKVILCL
T6 sequence (Q16531 whole entry partner): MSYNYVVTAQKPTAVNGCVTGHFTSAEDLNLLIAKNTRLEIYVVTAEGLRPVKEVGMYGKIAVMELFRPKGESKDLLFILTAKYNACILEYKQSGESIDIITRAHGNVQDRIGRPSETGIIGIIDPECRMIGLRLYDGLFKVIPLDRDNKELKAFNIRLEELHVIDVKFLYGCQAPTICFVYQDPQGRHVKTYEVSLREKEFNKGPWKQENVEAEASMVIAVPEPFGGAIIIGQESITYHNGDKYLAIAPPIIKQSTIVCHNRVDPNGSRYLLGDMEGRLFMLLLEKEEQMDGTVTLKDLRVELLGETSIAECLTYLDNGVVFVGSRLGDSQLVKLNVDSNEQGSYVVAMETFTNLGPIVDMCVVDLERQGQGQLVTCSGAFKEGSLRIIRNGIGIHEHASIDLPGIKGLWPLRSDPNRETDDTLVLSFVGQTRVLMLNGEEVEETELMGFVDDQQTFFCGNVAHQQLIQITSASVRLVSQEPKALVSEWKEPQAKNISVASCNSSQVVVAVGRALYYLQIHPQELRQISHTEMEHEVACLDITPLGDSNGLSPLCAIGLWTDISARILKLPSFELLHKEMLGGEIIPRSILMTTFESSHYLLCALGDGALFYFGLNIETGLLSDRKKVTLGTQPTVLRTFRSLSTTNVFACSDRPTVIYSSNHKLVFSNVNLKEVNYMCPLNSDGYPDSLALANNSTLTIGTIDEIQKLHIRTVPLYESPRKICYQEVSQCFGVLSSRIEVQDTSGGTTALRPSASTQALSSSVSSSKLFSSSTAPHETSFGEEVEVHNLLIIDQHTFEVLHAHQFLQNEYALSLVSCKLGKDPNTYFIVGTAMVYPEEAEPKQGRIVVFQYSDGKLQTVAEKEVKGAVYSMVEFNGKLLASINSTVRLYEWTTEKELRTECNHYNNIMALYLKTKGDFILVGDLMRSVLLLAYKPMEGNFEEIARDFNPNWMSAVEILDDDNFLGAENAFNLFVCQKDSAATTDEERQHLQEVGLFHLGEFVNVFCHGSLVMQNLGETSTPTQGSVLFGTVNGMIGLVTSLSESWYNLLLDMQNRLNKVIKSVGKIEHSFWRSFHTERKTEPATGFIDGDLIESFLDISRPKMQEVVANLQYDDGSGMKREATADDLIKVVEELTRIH
T4 sequence (Q9UKT9 whole entry): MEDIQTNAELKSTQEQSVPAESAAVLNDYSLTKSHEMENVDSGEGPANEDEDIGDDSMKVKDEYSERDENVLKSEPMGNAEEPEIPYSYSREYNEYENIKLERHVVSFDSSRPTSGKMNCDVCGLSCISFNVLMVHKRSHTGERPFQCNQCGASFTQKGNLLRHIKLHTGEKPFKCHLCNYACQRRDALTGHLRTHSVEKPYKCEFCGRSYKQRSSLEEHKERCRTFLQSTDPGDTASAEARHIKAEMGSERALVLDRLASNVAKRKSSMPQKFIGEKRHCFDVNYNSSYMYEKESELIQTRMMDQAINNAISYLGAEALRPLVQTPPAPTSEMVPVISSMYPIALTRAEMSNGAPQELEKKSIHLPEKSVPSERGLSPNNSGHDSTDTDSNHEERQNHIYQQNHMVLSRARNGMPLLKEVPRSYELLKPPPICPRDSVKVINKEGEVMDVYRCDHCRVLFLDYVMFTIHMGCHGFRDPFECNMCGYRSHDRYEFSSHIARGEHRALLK
T4 sequence (Q96SW2 whole entry): as the sequence (Q96SW2 whole entry) above
T4 sequence (Q16531 whole entry partner): as the sequence (Q16531 whole entry partner) above
T5 sequence (P48729 whole entry): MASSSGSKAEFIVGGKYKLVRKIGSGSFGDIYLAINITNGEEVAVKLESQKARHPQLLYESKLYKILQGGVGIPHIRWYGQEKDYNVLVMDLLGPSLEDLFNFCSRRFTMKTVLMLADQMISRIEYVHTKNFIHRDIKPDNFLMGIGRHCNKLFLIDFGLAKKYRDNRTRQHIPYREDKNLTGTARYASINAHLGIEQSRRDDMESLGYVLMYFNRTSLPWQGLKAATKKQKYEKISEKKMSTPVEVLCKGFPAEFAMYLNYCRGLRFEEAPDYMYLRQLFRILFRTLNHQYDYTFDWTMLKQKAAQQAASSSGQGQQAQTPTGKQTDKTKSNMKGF
T5 sequence (Q96SW2 whole entry): as the sequence (Q96SW2 whole entry) above
T5 sequence (Q16531 whole entry partner): as the sequence (Q16531 whole entry partner) above
T1 sequence (P30291 whole entry): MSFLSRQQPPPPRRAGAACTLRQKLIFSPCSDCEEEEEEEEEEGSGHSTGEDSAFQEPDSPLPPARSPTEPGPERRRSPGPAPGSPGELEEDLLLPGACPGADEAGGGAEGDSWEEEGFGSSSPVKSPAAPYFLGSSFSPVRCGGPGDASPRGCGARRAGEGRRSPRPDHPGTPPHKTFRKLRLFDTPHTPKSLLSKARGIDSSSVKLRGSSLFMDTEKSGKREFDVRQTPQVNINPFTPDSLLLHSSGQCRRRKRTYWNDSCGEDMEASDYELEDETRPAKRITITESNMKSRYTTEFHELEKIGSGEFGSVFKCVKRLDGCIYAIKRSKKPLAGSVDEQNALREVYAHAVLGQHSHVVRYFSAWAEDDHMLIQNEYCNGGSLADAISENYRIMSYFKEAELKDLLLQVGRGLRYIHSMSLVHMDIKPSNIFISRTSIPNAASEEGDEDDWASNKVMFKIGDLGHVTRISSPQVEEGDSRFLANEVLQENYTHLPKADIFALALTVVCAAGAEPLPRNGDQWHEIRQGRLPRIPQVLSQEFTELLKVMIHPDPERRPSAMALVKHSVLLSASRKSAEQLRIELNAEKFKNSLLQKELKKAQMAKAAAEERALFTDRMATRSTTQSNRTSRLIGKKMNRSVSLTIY
T1 sequence (Q96SW2 whole entry): as the sequence (Q96SW2 whole entry) above
T1 sequence (Q16531 whole entry partner): as the sequence (Q16531 whole entry partner) above
T3 sequence (Q9UKS7 whole entry): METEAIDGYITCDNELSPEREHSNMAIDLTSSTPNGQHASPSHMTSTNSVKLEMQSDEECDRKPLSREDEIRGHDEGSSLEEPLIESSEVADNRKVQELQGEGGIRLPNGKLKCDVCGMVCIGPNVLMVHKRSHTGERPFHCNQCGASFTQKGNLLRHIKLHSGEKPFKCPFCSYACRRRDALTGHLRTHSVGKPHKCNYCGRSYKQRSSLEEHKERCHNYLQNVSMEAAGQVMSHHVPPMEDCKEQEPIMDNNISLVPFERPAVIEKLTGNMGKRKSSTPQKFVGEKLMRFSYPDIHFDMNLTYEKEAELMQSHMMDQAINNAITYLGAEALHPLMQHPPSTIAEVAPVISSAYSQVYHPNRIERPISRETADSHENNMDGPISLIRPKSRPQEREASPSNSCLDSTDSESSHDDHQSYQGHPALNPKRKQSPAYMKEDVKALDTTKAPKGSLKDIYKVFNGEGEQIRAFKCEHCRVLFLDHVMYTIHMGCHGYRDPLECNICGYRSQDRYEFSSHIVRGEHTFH
T3 sequence (Q96SW2 whole entry): as the sequence (Q96SW2 whole entry) above
T3 sequence (Q16531 whole entry partner): as the sequence (Q16531 whole entry partner) above

| SMILES | WEE1 substrate protein remaining % [1] | IKZF1 substrate protein remaining % [2] | IKZF2 substrate protein remaining % [3] | IKZF3 substrate protein remaining % [4] | CK1α substrate protein remaining % [5] | GSPT1 substrate protein remaining % [6] |
| --- | --- | --- | --- | --- | --- | --- |
| O=C1CCN(N2Cc3cc(CN4CCN(c5ccncc5F)CC4)ccc3C2=O)C(=O)N1 [GT-05697, 1-(5-((4-(3-fluoropyridin-4-yl)piperazin-1-yl)methyl)-1-oxoisoindolin-2-yl)dihydropyrimidine-2,4(1H,3H)-dione] | A (0% ≤ substrate protein remaining % ≤80%) | B (80%< substrate protein remaining % ≤100%) | B (80%< substrate protein remaining % ≤100%) | B (80%< substrate protein remaining % ≤100%) | B (80%< substrate protein remaining % ≤100%) | A (0% ≤ substrate protein remaining % ≤80%) |
| O=C1CCN(N2Cc3cc(CN4CCN(C(c5ccccc5)c5cccnc5)CC4)ccc3C2=O)C(=O)N1 (stereo not drawn) [GT-06376, 1-(1-oxo-5-((4-(phenyl(pyridin-3-yl)methyl)piperazin-1-yl)methyl)isoindolin-2-yl)dihydropyrimidine-2,4(1H,3H)-dione] | A (0% ≤ substrate protein remaining % ≤80%) | B (80%< substrate protein remaining % ≤100%) | A (0% ≤ substrate protein remaining % ≤80%) | B (80%< substrate protein remaining % ≤100%) | B (80%< substrate protein remaining % ≤100%) | A (0% ≤ substrate protein remaining % ≤80%) |
| O=C1CCN(N2C(=O)c3ccc(CN4CCN(C(c5ccccc5)c5cccnc5)CC4)cc3C2=O)C(=O)N1 (stereo not drawn) [GT-06377, 2-(2,4-dioxotetrahydropyrimidin-1(2H)-yl)-5-((4-(phenyl(pyridin-3-yl)methyl)piperazin-1-yl)methyl)isoindoline-1,3-dione] | A (0% ≤ substrate protein remaining % ≤80%) | B (80%< substrate protein remaining % ≤100%) | A (0% ≤ substrate protein remaining % ≤80%) | B (80%< substrate protein remaining % ≤100%) | B (80%< substrate protein remaining % ≤100%) | B (80%< substrate protein remaining % ≤100%) |
| O=C1CCN(N2C(=O)c3ccc(CN4CCN(C(c5ccccc5)c5ccncc5)CC4)cc3C2=O)C(=O)N1 (stereo not drawn) [GT-06378, 2-(2,4-dioxotetrahydropyrimidin-1(2H)-yl)-5-((4-(phenyl(pyridin-4-yl)methyl)piperazin-1-yl)methyl)isoindoline-1,3-dione] | A (0% ≤ substrate protein remaining % ≤80%) | B (80%< substrate protein remaining % ≤100%) | A (0% ≤ substrate protein remaining % ≤80%) | A (0% ≤ substrate protein remaining % ≤80%) | B (80%< substrate protein remaining % ≤100%) | B (80%< substrate protein remaining % ≤100%) |
| O=C1CCN(N2C(=O)c3ccc(CN4CCN(C(c5ccccn5)c5ccccn5)CC4)cc3C2=O)C(=O)N1 [GT-06379, 5-((4-(di(pyridin-2-yl)methyl)piperazin-1-yl)methyl)-2-(2,4-dioxotetrahydropyrimidin-1(2H)-yl)isoindoline-1,3-dione] | A (0% ≤ substrate protein remaining % ≤80%) | B (80%< substrate protein remaining % ≤100%) | A (0% ≤ substrate protein remaining % ≤80%) | A (0% ≤ substrate protein remaining % ≤80%) | B (80%< substrate protein remaining % ≤100%) | A (0% ≤ substrate protein remaining % ≤80%) |
| CC1(C)CN(Cc2ccc3c(c2)C(=O)N(N2CCC(=O)NC2=O)C3=O)CCN1C(c1ccccc1)c1ccccc1 [GT-06385, 5-((4-benzhydryl-3,3-dimethylpiperazin-1-yl)methyl)-2-(2,4-dioxotetrahydropyrimidin-1(2H)-yl)isoindoline-1,3-dione] | A (0% ≤ substrate protein remaining % ≤80%) | B (80%< substrate protein remaining % ≤100%) | B (80%< substrate protein remaining % ≤100%) | A (0% ≤ substrate protein remaining % ≤80%) | B (80%< substrate protein remaining % ≤100%) | A (0% ≤ substrate protein remaining % ≤80%) |
| O=C1CCN(N2Cc3cc(CN4CCC(c5nccc(Cl)c5Cl)CC4)ccc3C2=O)C(=O)N1 [GT-06388, 1-(5-((4-(3,4-dichloropyridin-2-yl)piperidin-1-yl)methyl)-1-oxoisoindolin-2-yl)dihydropyrimidine-2,4(1H,3H)-dione] | B (80%< substrate protein remaining % ≤100%) | B (80%< substrate protein remaining % ≤100%) | B (80%< substrate protein remaining % ≤100%) | B (80%< substrate protein remaining % ≤100%) | B (80%< substrate protein remaining % ≤100%) | A (0% ≤ substrate protein remaining % ≤80%) |
| O=C1CCN(N2Cc3cc(CN4CCC(c5ccnc(Cl)c5Cl)CC4)ccc3C2=O)C(=O)N1 [GT-06390, 1-(5-((4-(2,3-dichloropyridin-4-yl)piperidin-1-yl)methyl)-1-oxoisoindolin-2-yl)dihydropyrimidine-2,4(1H,3H)-dione] | B (80%< substrate protein remaining % ≤100%) | B (80%< substrate protein remaining % ≤100%) | B (80%< substrate protein remaining % ≤100%) | B (80%< substrate protein remaining % ≤100%) | B (80%< substrate protein remaining % ≤100%) | A (0% ≤ substrate protein remaining % ≤80%) |
| O=C1CCN(N2Cc3cc(CN4CC=C(c5cncc(Cl)c5)CC4)ccc3C2=O)C(=O)N1 [GT-06394, 1-(5-((5-chloro-3′,6′-dihydro-[3,4′-bipyridin]-1′ (2′H)-yl)methyl)-1-oxoisoindolin-2-yl)dihydropyrimidine-2,4(1H,3H)-dione] | B (80%< substrate protein remaining % ≤100%) | B (80%< substrate protein remaining % ≤100%) | A (0% ≤ substrate protein remaining % ≤80%) | B (80%< substrate protein remaining % ≤100%) | A (0% ≤ substrate protein remaining % ≤80%) | A (0% ≤ substrate protein remaining % ≤80%) |
| O=C1CCN(N2Cc3cc(CN4CC=C(c5ncccc5F)CC4)ccc3C2=O)C(=O)N1 [GT-06395, 1-(5-((3-fluoro-3′,6′-dihydro-[2,4′-bipyridin]-1′ (2′H)-yl)methyl)-1-oxoisoindolin-2-yl)dihydropyrimidine-2,4(1H,3H)-dione] | B (80%< substrate protein remaining % ≤100%) | B (80%< substrate protein remaining % ≤100%) | B (80%< substrate protein remaining % ≤100%) | B (80%< substrate protein remaining % ≤100%) | A (0% ≤ substrate protein remaining % ≤80%) | A (0% ≤ substrate protein remaining % ≤80%) |
| O=C1CCN(N2Cc3cc(CN4CCC(c5ccnc(F)c5F)CC4)ccc3C2=O)C(=O)N1 [GT-06396, 1-(5-((4-(2,3-difluoropyridin-4-yl)piperidin-1-yl)methyl)-1-oxoisoindolin-2-yl)dihydropyrimidine-2,4(1H,3H)-dione] | B (80%< substrate protein remaining % ≤100%) | B (80%< substrate protein remaining % ≤100%) | B (80%< substrate protein remaining % ≤100%) | B (80%< substrate protein remaining % ≤100%) | A (0% ≤ substrate protein remaining % ≤80%) | B (80%< substrate protein remaining % ≤100%) |
| O=C1CCN(N2Cc3cc(CN4CC=C(c5ccnc(F)c5F)CC4)ccc3C2=O)C(=O)N1 [GT-06397, 1-(5-((2′,3′-difluoro-3,6-dihydro-[4,4′-bipyridin]-1(2H)-yl)methyl)-1-oxoisoindolin-2-yl)dihydropyrimidine-2,4(1H,3H)-dione] | A (0% ≤ substrate protein remaining % ≤80%) | B (80%< substrate protein remaining % ≤100%) | A (0% ≤ substrate protein remaining % ≤80%) | B (80%< substrate protein remaining % ≤100%) | B (80%< substrate protein remaining % ≤100%) | A (0% ≤ substrate protein remaining % ≤80%) |
| CC1CN(Cc2ccc3c(c2)C(=O)N(N2CCC(=O)NC2=O)C3=O)CC(C)N1C(c1ccccc1)c1ccccc1 (stereo not drawn) [GT-06430, 5-((4-benzhydryl-3,5-dimethylpiperazin-1-yl)methyl)-2-(2,4-dioxotetrahydropyrimidin-1(2H)-yl)isoindoline-1,3-dione] | A (0% ≤ substrate protein remaining % ≤80%) | A (0% ≤ substrate protein remaining % ≤80%) | B (80%< substrate protein remaining % ≤100%) | A (0% ≤ substrate protein remaining % ≤80%) | B (80%< substrate protein remaining % ≤100%) | A (0% ≤ substrate protein remaining % ≤80%) |

Reference: US20260356819A1, “OXOISOINDOLINYL-SUBSTITUTED […] DERIVATIVE AND USE THEREOF” (GLUETACS THERAPEUTICS (SHANGHAI) CO., LTD., priority 2023, published 2026)
